Laboratory results from patent US6737383B1, “Herbicidal oxadiazolidines” (priority 1999, dated 2004).

Assays:
velvetleaf = assay: Test B pre/postemergence velvetleaf; format: in vivo, Abutilon theophrasti
In short: (§1)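 Response is a visual 0-to-10 score relative to untreated plants, where 0 means no effect and 10 means complete control, taken twelve to sixteen days after application. Treatments went onto soil at planting and onto foliage of 1- to 4-leaf plants, using a surfactant-containing non-phytotoxic solvent.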

bamyardgrass = assay: Test B flood test barnyardgrass; format: in vivo, Echinochloa crus-galli
In short: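 Read-out is a visual response score from 0 (no effect) to 10 (complete control), assigned by comparison with untreated controls. Treatment was applied at the 2-leaf stage, and plants stayed in the greenhouse for twelve to sixteen days before scoring.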

wheat = assay: Test B pre/postemergence wheat; format: in vivo, Triticum aestivum
In short: as §1

rape = assay: Test B pre/postemergence rape; format: in vivo, Brassica napus
In short: as §1

[1] = Preemergence, Rate 62 g/ha, scale of 0 to 10 where 0 is no effect and 10 is complete control
[2] = Preemergence, Rate 250 g/ha, scale of 0 to 10 where 0 is no effect and 10 is complete control
[3] = Preemergence, Rate 500 g/ha, scale of 0 to 10 where 0 is no effect and 10 is complete control
[4] = Rate 62 g/ha, Postemergence, scale of 0 to 10 where 0 is no effect and 10 is complete control
[5] = Rate 125 g/ha, Postemergence, scale 0 to 10
[6] = Rate 125 g/ha, Preemergence, scale of 0 to 10 where 0 is no effect and 10 is complete control
[7] = Rate 500 g/ha, Postemergence, scale 0 to 10, 0 no effect, 10 complete control
[8] = Rate 62 g/ha, headed Pre-emergence (flood test species), scale 0 to 10 (0 no effect, 10 complete control)
[9] = Rate 125 g/ha, Pre-emergence, flood test species, scale 0 to 10 where 0 is no effect and 10 is complete control
[10] = Rate 250 g/ha, Pre-emergence, flood-test species, scale 0 to 10, 0 is no effect, 10 is complete control
[11] = Rate 500 g/ha, Pre-emergence, flood test species, scale 0 to 10 (0 no effect, 10 complete control)
[12] = Rate 125 g/ha, Postemergence, scale of 0 to 10 where 0 is no effect and 10 is complete control
[13] = Rate 250 g/ha, Postemergence, scale of 0 to 10 where 0 is no effect and 10 is complete control
[14] = Rate 62 g/ha, Postemergence, scale 0 to 10 (0 no effect, 10 complete control)

Row | Compound | Velvetleaf plant response rating (velvetleaf; [1]) | Velvetleaf plant response rating (velvetleaf; [2]) | Plant response rating, Velvetleaf (velvetleaf; [3]) | Velvetleaf plant response rating (velvetleaf; [6]) | Velvetleaf plant response rating (velvetleaf; [7]) | Barnyardgrass plant response rating (bamyardgrass; [8]) | Barnyardgrass plant response rating (bamyardgrass; [9]) | Barnyardgrass plant response rating (bamyardgrass; [10]) | Barnyardgrass plant response rating (bamyardgrass; [11]) | Wheat plant response rating (wheat; [1]) | Wheat plant response rating (wheat; [2]) | Plant response rating, Wheat (wheat; [3]) | Wheat plant response rating (wheat; [6]) | Wheat plant response rating (wheat; [7]) | Rape plant response rating (rape; [1]) | Rape plant response rating (rape; [2]) | Plant response rating, Rape (rape; [3]) | Rape plant response rating (rape; [6]) | Rape plant response rating (rape; [7]) | Velvetleaf plant response rating (velvetleaf; [12]) | further results
1 | CCc1ccc(N(C(=O)n2oc(=O)n(-c3ccccc3C)c2=O)C(C)C)cc1 [Compound 230] | 0 | 0 | 0 | 0 | 0 | 0 | 0 | 0 | 0 | 0 | 0 | 0 | 0 | 0 | 0 | 0 | 0 | 0 | 0 | – | Velvetleaf plant response rating (velvetleaf; [4]): 0; Velvetleaf plant response rating (velvetleaf; [5]): 0; Plant response rating (0 to 10; 0 is no effect, 10 is complete control), Velvetleaf (velvetleaf; Rate 250 g/ha, Postemergence): 0; Wheat plant response rating (wheat; [4]): 0; Wheat plant response rating (wheat; [5]): 0; Plant response rating (0 to 10; 0 is no effect, 10 is complete control), Wheat (wheat; Rate 250 g/ha, Postemergence): 0; Rape plant response rating (rape; [4]): 0; Rape plant response rating (rape; [5]): 0; Plant response rating (0 to 10; 0 is no effect, 10 is complete control), Rape (rape; Rate 250 g/ha, Postemergence): 0
2 | CC(C)N(C(=O)n1oc(=O)n(-c2cccnc2)c1=O)c1ccc(F)cc1 [Compound 234] | 0 | 0 | 0 | 0 | 0 | 0 | 0 | 0 | 0 | 0 | 0 | 0 | 0 | 0 | 0 | 0 | 0 | 0 | 0 | – | Velvetleaf plant response rating (velvetleaf; [4]): 0; Velvetleaf plant response rating (velvetleaf; [5]): 0; Plant response rating (0 to 10; 0 is no effect, 10 is complete control), Velvetleaf (velvetleaf; Rate 250 g/ha, Postemergence): 0; Wheat plant response rating (wheat; [4]): 0; Wheat plant response rating (wheat; [5]): 0; Plant response rating (0 to 10; 0 is no effect, 10 is complete control), Wheat (wheat; Rate 250 g/ha, Postemergence): 0; Rape plant response rating (rape; [4]): 0; Rape plant response rating (rape; [5]): 0; Plant response rating (0 to 10; 0 is no effect, 10 is complete control), Rape (rape; Rate 250 g/ha, Postemergence): 0
3 | CC(C)N(C(=O)n1oc(=O)n(-c2cccnc2)c1=O)c1ccccc1 [Compound 235] | 0 | 0 | 0 | 0 | 0 | 0 | 0 | 0 | 0 | 0 | 0 | 0 | 0 | 0 | 0 | 0 | 0 | 0 | 0 | – | Velvetleaf plant response rating (velvetleaf; [4]): 0; Velvetleaf plant response rating (velvetleaf; [5]): 0; Plant response rating (0 to 10; 0 is no effect, 10 is complete control), Velvetleaf (velvetleaf; Rate 250 g/ha, Postemergence): 0; Wheat plant response rating (wheat; [4]): 0; Wheat plant response rating (wheat; [5]): 0; Plant response rating (0 to 10; 0 is no effect, 10 is complete control), Wheat (wheat; Rate 250 g/ha, Postemergence): 0; Rape plant response rating (rape; [4]): 0; Rape plant response rating (rape; [5]): 0; Plant response rating (0 to 10; 0 is no effect, 10 is complete control), Rape (rape; Rate 250 g/ha, Postemergence): 0
4 | CC(C)N(C(=O)n1oc(=O)n(-c2ccsc2)c1=O)c1ccc(F)cc1 [Compound 272] | 0 | 0 | 0 | 0 | 0 | 0 | 0 | 0 | 0 | 0 | 0 | 0 | 0 | 0 | 0 | 0 | 0 | 0 | 0 | 0 | Plant response rating, Velvetleaf (velvetleaf; [13]): 0; Wheat plant response rating (wheat; [12]): 0; Plant response rating, Wheat (wheat; [13]): 0; Rape plant response rating (rape; [12]): 0; Plant response rating, Rape (rape; [13]): 0
5 | Cc1ccccc1-n1c(=O)on(C(=O)N(c2ccc3c(c2)CCC3)C(C)C)c1=O [Compound 278] | 0 | 0 | 0 | 0 | 2 | 0 | 0 | 0 | 0 | 0 | 0 | 0 | 0 | 0 | 0 | 0 | 0 | 0 | 0 | 0 | Velvetleaf plant response rating (velvetleaf; [14]): 0; Plant response rating, Velvetleaf (velvetleaf; [13]): 0; Wheat plant response rating (wheat; [14]): 0; Wheat plant response rating (wheat; [12]): 0; Plant response rating, Wheat (wheat; [13]): 0; Rape plant response rating (rape; [14]): 0; Rape plant response rating (rape; [12]): 0; Plant response rating, Rape (rape; [13]): 0
6 | CC(C)N(C(=O)n1oc(=O)n(C[Si](C)(C)C)c1=O)c1ccc(F)cc1 [Compound 294] | 0 | 3 | 4 | 0 | – | 0 | 3 | 9 | 9 | 0 | 0 | 0 | 0 | – | 0 | 0 | 3 | 0 | – | 0 | Velvetleaf plant response rating (velvetleaf; [14]): 0; Plant response rating, Velvetleaf (velvetleaf; [13]): 0; Wheat plant response rating (wheat; [14]): 0; Wheat plant response rating (wheat; [12]): 0; Plant response rating, Wheat (wheat; [13]): 0; Rape plant response rating (rape; [14]): 0; Rape plant response rating (rape; [12]): 0; Plant response rating, Rape (rape; [13]): 2
7 | CCN(C(=O)n1oc(=O)n(Cc2ccco2)c1=O)C1CCCCC1 [Compound 312] | 0 | 0 | – | – | – | 0 | 0 | 0 | 0 | 0 | 0 | – | – | – | 0 | 0 | – | – | – | 0 | Velvetleaf plant response rating (0 to 10 scale) (velvetleaf; Preemergence, Rate 125 g/ha): 0; Velvetleaf plant response rating (velvetleaf; [3]): 0; Velvetleaf plant response rating (velvetleaf; [14]): 0; Plant response rating, Velvetleaf (velvetleaf; [13]): 0; Wheat plant response rating (0 to 10 scale) (wheat; Preemergence, Rate 125 g/ha): 0; Wheat plant response rating (wheat; [3]): 0; Wheat plant response rating (wheat; [14]): 0; Wheat plant response rating (wheat; [12]): 0; Plant response rating, Wheat (wheat; [13]): 0; Rape plant response rating (0 to 10 scale) (rape; Preemergence, Rate 125 g/ha): 0; Rape plant response rating (rape; [3]): 0; Rape plant response rating (rape; [14]): 0; Rape plant response rating (rape; [12]): 0; Plant response rating, Rape (rape; [13]): 0
8 | CC(C)N(C(=O)n1oc(=O)n(Cc2nnsc2Cl)c1=O)c1ccccc1 [Compound 321] | 0 | 0 | – | – | – | 0 | 0 | 0 | 0 | 0 | 0 | – | – | – | 0 | 0 | – | – | – | 0 | Velvetleaf plant response rating (0 to 10 scale) (velvetleaf; Preemergence, Rate 125 g/ha): 0; Velvetleaf plant response rating (velvetleaf; [3]): 0; Velvetleaf plant response rating (velvetleaf; [14]): 0; Plant response rating, Velvetleaf (velvetleaf; [13]): 0; Wheat plant response rating (0 to 10 scale) (wheat; Preemergence, Rate 125 g/ha): 0; Wheat plant response rating (wheat; [3]): 0; Wheat plant response rating (wheat; [14]): 0; Wheat plant response rating (wheat; [12]): 0; Plant response rating, Wheat (wheat; [13]): 0; Rape plant response rating (0 to 10 scale) (rape; Preemergence, Rate 125 g/ha): 0; Rape plant response rating (rape; [3]): 0; Rape plant response rating (rape; [14]): 0; Rape plant response rating (rape; [12]): 0; Plant response rating, Rape (rape; [13]): 0
